Laboratory results published in patent US20060141077A1, “Pest controlling composition and the use thereof” (ORGANOX AB, priority 2002, published 2006).

Assays:
[1] = tested on: several aphid species; assay: Repellency to aphids (conclusions); type: in vivo; settings: conclusion statement
Procedure: (§1) Responses of R. padi migrants to chemical odours were tested in a 4-way olfactometer (Pettersson, 1970), consisting of an enclosed Perspex arena (12 cm diameter) with a central chamber and four side arms. Air was drawn from the centre of the olfactometer using a water pump, establishing distinct airflow in the side arms. An odour field was established by introducing a chemical (released from a […] capillary tube, or a whole menthol crystal, weight: 0.14 g) into one of the side arms. A single adult apterous aphid was introduced into the olfactometer, and its position was recorded every 3 minutes for 30 minutes. The number of visits to the treatment arm was compared with the mean number of visits to the control arms using a paired t-test. Experiments were repeated 16-20 times (no. individual aphids tested), with the olfactometer turned through 90° between replicates to avoid positional bias. Olfactory responses to plants exposed to chemicals were done in a similar way, except that the odour sources consisted of whole plants enclosed in two-chamber cages attached directly to the olfactometer. In each olfactometer, one treated plant was compared with one untreated plant.

[2] = orally in rabbits; cited from earlier work
[3] = human adults; cited from earlier work
[4] = tested on: aphids; settings: applied by spraying in cereal plots, pilot experiment; cited from earlier work
[5] = cited from earlier work
[6] = tested on: Rhopalosiphum padi; assay: 4-way olfactometer, direct response to chemical odour; type: in vivo; settings: R. padi; visits to treatment arm vs control arms
Procedure: as §1

[7] = tested on: Aphis fabae; assay: as above; type: in vivo; settings: FIG. 1
[8] = tested on: Cavariella aegopodi; assay: as above; type: in vivo; settings: FIG. 1
[9] = tested on: Rhopalosiphum padi; assay: Olfactometer response to odour of barley plants exposed to chemicals; type: in vivo; settings: treated plant vs untreated plant
From the text: Exposure of barley plants to volatile chemicals was done in perspex ‘two-chamber cages’ (Pettersson et al. 1999) attached to a vacuum tank. Air was taken into the first chamber through a hole in the cage wall, passed into the second chamber and was then drawn out from the top of this cage to a vacuum tank before being vented outside the room. Plants were placed in the second chamber, and chemicals were released from microcapillary tubing which hung in the first chamber. Plants were exposed for 5 days, after which time they were removed and used in tests of aphid behaviour. Control plants grew in identical cages with empty microcapillary tubes. Responses of R. padi migrants to chemical odours were tested in a 4-way olfactometer (Pettersson, 1970), consisting of an enclosed Perspex arena (12 cm diameter) with a central chamber and four side arms. Air was drawn from the centre of the olfactometer using a water pump, establishing distinct airflow in the side arms. An odour field was established by introducing a chemical (released from a […] capillary tube, or a whole menthol crystal, weight: 0.14 g) into one of the side arms. A single adult apterous aphid was introduced into the olfactometer, and its position was recorded every 3 minutes for 30 minutes. The number of visits to the treatment arm was compared with the mean number of visits to the control arms using a paired t-test. […]

[10] = tested on: aphids; assay: Test of aphid settling on exposed barley plants; type: in vivo; settings: barley exposed for 3, 4 and 6 days; FIG. 3
From the text: Exposure of barley plants to volatile chemicals was done in perspex ‘two-chamber cages’ (Pettersson et al. 1999) attached to a vacuum tank. Air was taken into the first chamber through a hole in the cage wall, passed into the second chamber and was then drawn out from the top of this cage to a vacuum tank before being vented outside the room. Plants were placed in the second chamber, and chemicals were released from microcapillary tubing which hung in the first chamber. […] Control plants grew in identical cages with empty microcapillary tubes. A 50 ml polystyrene tube was placed over the youngest fully developed leaf. The upper end of the tube was covered with a net and the lower end with a foam plastic plug with a slit for the leaf. To minimise mechanical damage to the test plant, a stick was used to support the tube. Ten mixed-instar apterous aphids were placed in the tube and after 2 hours the number of aphids settled (not walking) on the leaf was recorded. Occasionally aphids were able to escape from the tubes, but the results were expressed as a proportion of the number of aphids originally introduced, in case the propensity of an aphid to escape from the tube was influenced by the experimental treatment of the plant. The number of replicates (tubes) varied between experiments, but there were always equal numbers of control and treatment plants. […]

COC(=O)c1ccccc1O [methyl salicylate, 2-hydroxybenzoic acid methyl ester]
repellency for several aphid species [1]: strong repellents | LD50 [2]: 2800 mg/kg | average lethal dose [3]: 30 mL | aphid settling in the field [4]: significantly reduced aphid settling | solubility in water [5]: slightly soluble

CC1CCC(C(C)C)C(O)C1 (stereo not shown) [menthol, 5-methyl-2-(1-methylethyl)-cyclohexanol]
response to chemical odour in the olfactometer [6]: strongly repelled | response to chemical odour in the olfactometer [7]: strongly repelled | response to chemical odour in the olfactometer [8]: strongly repelled | response to odour of plants exposed to the chemical [9]: repelled | repellency for several aphid species [1]: strong repellents

CC12CCC(CC1)C(C)(C)O2 [1,8-cineole, 1,3,3-trimethyl-2-oxabicyclo[2.2.2.]octane]
response to chemical odour in the olfactometer [6]: did not respond | response to odour of plants exposed to the chemical [9]: less attractive | aphid settling on plants exposed to the substance [10]: settled significantly less
